Source: publication PMC3875372 (Biochemistry, 2013)

Key:
[1] = standards; 2-aminopyridine λex 295 nm, anthracene λex 340 nm; cited from earlier work
ecDHFR = conditions: cited from earlier work
[2] = test system: modified DHFRs (biphenyl-phenylalanines at position 115); test: Inhibition of the modified DHFRs; format: biochemical, E. coli; conditions: all four DHFRs modified at position 115

c1ccc2cc3ccccc3cc2c1 [anthracene]
ΦF of quantum yield standard [1]: 0.27

L-(7-hydroxycoumarin-4-yl)ethylglycine
rate of NADPH consumption relative to wild type (ecDHFR; position 115 of ecDHFR): about 25%

Nc1ccccn1 [2-aminopyridine]
ΦF of quantum yield standard [1]: 0.60

CN(Cc1cnc2nc(N)nc(N)c2n1)c1ccc(C(=O)N[C@@H](CCC(=O)O)C(=O)O)cc1 [methotrexate]
inhibition of the modified enzymes compared with wild type [2]: about the same extent as wild type

4-biphenyl-L-phenylalanine
effect on the rate at which ecDHFR consumed NADPH (ecDHFR; replacement of Ile115, in the presence of dihydrofolate): no significant effect
